The text below walks through data of US20230236172A1, “T Cells That Respond To Patient Neoepitopes” (NantCell, Inc., priority 2020, published 2023).

This test has as its system T cells generated with E. coli expressed polytope. Briefly: ELISPOT with in vitro translated epitope peptides on the polytope-generated T cell line (FIG. 10). In kind it is cell-based, human. How it is done: An exemplary synthetic DNA template for creating neoepitope peptides in vitro is depicted below, and the corresponding sequences are shown in SEQ ID NO:18, SEQ ID NO:19, SEQ ID NO:20, and SEQ ID NO:21 respectively.
One template strand oligo per epitope plus sense strand universal promoter oligo was used. […] Rather the reaction required simply adding annealed oligos to expression mix, and the mixture was allowed to react for 2 hours.

As to “WQAGILARNLVPMVATVQGQNLKYQ (IVT&T peptide9)”, the “Recognition of epitope by T cells in the T cell line” value is “recognized by T cells”.
For FMRPHERNGFTVLCPKNMIIKPGKI [E6] the value was “recognized by T cells”.
